Assay results: US9284345B2 (priority 2007, dated 2016)
Several values for one entry are separate records, joined by “and”; a condition that tells them apart may be missing. Equal entries are not always repeated. Where two headings read alike, the source gives them in different places.

Tests used:
[1] = test system: Shionogi mouse mammary carcinoma cells; assay: cells; type: cell-based; details: for Ki: read-out: Shionogi cells Antiandrogenic activity Ki
Immature Rat CX + DHT = assay: animal or person; type: in vivo; details: for change in vivo at 0.1 mg / change in vivo at 0.5 mg: Rattus norvegicus, 168 h; for change in vivo at 0.1 mg / change in vivo at 0.5 mg / In Vivo Anti-A Rat CX + DHT % change vs DHT (CX CONT = −100%) Bulbo / In Vivo Anti-A Rat CX + DHT % change vs DHT (CX CONT = −100%) SV / In Vivo Anti-A Rat CX + DHT % change vs DHT (CX CONT = −100%) VP: po
Rat Androgen Receptor = target: T1, Rat Androgen Receptor (Rattus norvegicus, UniProt P15207); assay: Androgen receptor binding assay (HAP, [3H]R1881), rat prostate cytosol
T1 construct: ventral prostates collected from 24 h-gonadectomized rats were homogenized in buffer A; from tissue; host or cells: rat ventral prostate cytosol (24 h-gonadectomized rats)
T1 sequence (P15207 1-902): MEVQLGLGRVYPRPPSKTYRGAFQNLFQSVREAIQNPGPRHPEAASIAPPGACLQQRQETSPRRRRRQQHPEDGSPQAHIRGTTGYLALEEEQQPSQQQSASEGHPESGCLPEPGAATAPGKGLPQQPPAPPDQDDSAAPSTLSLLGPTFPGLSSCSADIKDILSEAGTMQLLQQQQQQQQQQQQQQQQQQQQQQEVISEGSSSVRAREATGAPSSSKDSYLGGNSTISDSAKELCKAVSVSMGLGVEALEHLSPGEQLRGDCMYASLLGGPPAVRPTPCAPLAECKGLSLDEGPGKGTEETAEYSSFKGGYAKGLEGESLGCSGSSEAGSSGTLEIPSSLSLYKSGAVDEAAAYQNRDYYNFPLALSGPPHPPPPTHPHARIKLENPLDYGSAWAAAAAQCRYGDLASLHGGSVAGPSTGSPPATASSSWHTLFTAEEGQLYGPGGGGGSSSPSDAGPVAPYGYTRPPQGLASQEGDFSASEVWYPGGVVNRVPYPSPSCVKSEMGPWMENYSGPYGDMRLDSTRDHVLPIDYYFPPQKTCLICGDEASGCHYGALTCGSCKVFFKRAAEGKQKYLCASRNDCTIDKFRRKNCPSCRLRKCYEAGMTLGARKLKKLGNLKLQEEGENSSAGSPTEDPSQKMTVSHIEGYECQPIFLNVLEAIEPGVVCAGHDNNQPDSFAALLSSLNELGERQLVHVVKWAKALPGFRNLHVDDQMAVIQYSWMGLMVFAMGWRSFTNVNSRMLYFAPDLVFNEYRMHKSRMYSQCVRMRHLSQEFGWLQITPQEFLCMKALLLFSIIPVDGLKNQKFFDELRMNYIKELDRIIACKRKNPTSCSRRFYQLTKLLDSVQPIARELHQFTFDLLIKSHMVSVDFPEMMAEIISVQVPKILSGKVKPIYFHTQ
Experimental: On the morning of the binding assay, ventral prostates collected from 24 h-gonadectomized rats were homogenized in buffer A (1 g of tissue in 5 mL) and the homogenate was centrifuged as described above.
Androgen binding is measured using the hydroxylapatite (HAP) assay. In brief, the radioactive steroid [^3H]R1881 solubilized in ethanol is diluted with buffer B (10 mM Tris-HCl, 1.5 mM EDTA disodium salt, 10 mM α-monothioglycerol, pH 7.4). Aliquots of the cell or prostate cytosol preparation (0.1 ml) are then incubated with 5 nM [^3H]R1881 (0.1 ml, ˜100 000 cpm) in the presence or absence of the indicated concentrations of unlabeled compounds (0.1 ml, prepared in buffer B containing 30% ethanol) for 16-18 h at 0-4° C. Triamcinolone acetonide (TAC; 100 nM) is added to mask progesterone receptors. Unbound steroids are separated by incubation for 40 min at 0-4° C. with 0.3 ml HAP prepared in buffer P (50 mM Tris-HCl, 10 mM KH2PO4, pH 7.4). After incubation with HAP and 10 min of centrifugation at 1000×g, the pellet is washed 3 times with 1 ml of buffer P. Thereafter, the radioactivity is extracted from the pellet by incubation at room temperature for 60 min with 1 ml of ethanol. After centrifugation, the supernatant is decanted into a scintillation vial and the pellet is extracted again with ethanol. After the addition of scintillation liquid, the radioactivity is measured in a liquid scintillation counter.

in vivo = details: male, Sprague-Dawley, rat, po, 0.5 mg
[2] = test system: CX+ 4-DIONE in Mature Rat; assay: Systemic antiandrogenic activity in mature male rats; type: in vivo
Human Androgen Receptor = target: T2, Human Androgen Receptor (Homo sapiens, UniProt P10275); type: binding
T2 construct: expressed in transfected cells; host or cells: HEK-293 cells stably transfected with the pCMVneo-hAR plasmid (G-418 selection); cytosol used
T2 sequence (P10275 1-920): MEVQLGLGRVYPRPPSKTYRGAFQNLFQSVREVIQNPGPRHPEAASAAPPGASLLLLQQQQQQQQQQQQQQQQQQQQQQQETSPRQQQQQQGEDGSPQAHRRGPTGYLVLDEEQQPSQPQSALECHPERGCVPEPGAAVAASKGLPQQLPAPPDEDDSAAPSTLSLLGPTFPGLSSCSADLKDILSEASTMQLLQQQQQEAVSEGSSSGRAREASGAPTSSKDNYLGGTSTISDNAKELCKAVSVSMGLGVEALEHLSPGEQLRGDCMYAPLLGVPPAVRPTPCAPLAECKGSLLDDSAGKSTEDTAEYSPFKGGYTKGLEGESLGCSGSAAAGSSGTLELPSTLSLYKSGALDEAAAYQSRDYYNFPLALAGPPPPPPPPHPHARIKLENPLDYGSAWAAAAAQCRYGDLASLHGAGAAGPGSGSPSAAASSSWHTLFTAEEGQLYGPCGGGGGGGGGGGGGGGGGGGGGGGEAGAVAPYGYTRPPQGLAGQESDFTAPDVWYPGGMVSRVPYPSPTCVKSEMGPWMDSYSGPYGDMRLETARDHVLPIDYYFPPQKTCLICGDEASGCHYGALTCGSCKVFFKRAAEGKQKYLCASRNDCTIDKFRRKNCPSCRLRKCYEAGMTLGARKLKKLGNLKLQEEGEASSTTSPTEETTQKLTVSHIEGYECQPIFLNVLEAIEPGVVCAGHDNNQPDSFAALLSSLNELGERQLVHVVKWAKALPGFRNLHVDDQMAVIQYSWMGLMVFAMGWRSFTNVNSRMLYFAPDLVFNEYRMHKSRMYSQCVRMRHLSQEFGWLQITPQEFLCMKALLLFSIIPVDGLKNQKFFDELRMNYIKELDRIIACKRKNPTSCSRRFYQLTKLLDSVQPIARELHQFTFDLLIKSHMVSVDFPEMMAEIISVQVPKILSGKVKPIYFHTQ

androgen receptor = assay: Antiandrogen / SARM / androgen profile observed on structural change; details: structure-activity observation in estratriene derivatives
Excerpt: Preferred positions on the steroid to this change in activities are 3, 4, 11β, 16 and 17α. […] Moreover, when we changed the 4-fluoro by a 4-chloro on EM-6583, we obtained a pure androgen (EM-5697). Similarly, when we increased the size of the chain at 17α-position on (1,4-phenylene as a spacer group), EM-8419 became a SARM. Again, when we changed the 4-fluoro by a 4-chloro on EM-8419, we obtained a pure androgen (EM-5313).
We also believed that a larger size increase could reverse the observed tendency (androgen to SARM or antiandrogen). Thus, it is not obvious to make good predictions of the biological activity of this compound family but some trends are observable.

[3] = in vivo
Intact Rat = assay: In vivo activity in intact rat (organ and muscle weight); details: rat, in vivo
[4] = read-out: In Vivo Antagonist % Change vs DHT (CX = −100%) SV
[5] = read-out: In Vivo Antagonist % Change vs DHT (CX = −100%) VP

SMILES | Shionogi cells Antiandrogenic activity Ki OH-Flu/Ki compound [1] | Ki [1] [nM] | change in vivo at 0.1 mg (Immature Rat CX + DHT; [4]) [%] | change in vivo at 0.5 mg (Immature Rat CX + DHT; [4]) [%] | change in vivo at 0.1 mg (Immature Rat CX + DHT; [5]) [%] | change in vivo at 0.5 mg (Immature Rat CX + DHT; [5]) [%] | inhibition of DHT-stimulated seminal vesicle weight (Immature Rat CX + DHT; rat, in vivo) [%] | inhibition of DHT-stimulated ventral prostate weight (Immature Rat CX + DHT; rat, in vivo) [%] | Rat Androgen Receptor Binding RBA (%) R1881 = 100% (Rat Androgen Receptor) [%] | % change vs 4-DIONE Cont (CX Cont = −100% inh) Seminal Vesicles ([2]; 1 mg/rat/per os/ID) [%] | % change vs 4-DIONE Cont (CX Cont = −100% inh) Ventral Prostate ([2]; 1 mg/rat/per os/ID) [%] | Human Androgen Receptor Binding RBA (%) R1881 = 100% (Human Androgen Receptor) [%] | activity profile (antiandrogen, SARM or androgen) (androgen receptor) | In Vivo Anti-A Rat CX + DHT % change vs DHT (CX CONT = −100%) Bulbo (Immature Rat CX + DHT; rat, in vivo) | In Vivo Anti-A Rat CX + DHT % change vs DHT (CX CONT = −100%) SV (Immature Rat CX + DHT; rat, in vivo) | In Vivo Anti-A Rat CX + DHT % change vs DHT (CX CONT = −100%) VP (Immature Rat CX + DHT; rat, in vivo) | In Vivo Intact Rat % change vs Intact CONT (Intact CONT = +100%; CX CONT = 0%) Bulbo (Intact Rat) | In Vivo Intact Rat % change vs Intact CONT (Intact CONT = +100%; CX CONT = 0%) SZ (Intact Rat) | In Vivo Intact Rat % change vs Intact CONT (Intact CONT = +100%; CX CONT = 0%) VP (Intact Rat) | AUC (in vivo; in vivo) [ng·h/mL] | also measured
C[C@]12CCC3c4ccc(C#N)c(F)c4CCC3C1CC[C@@]2(O)Cc1cc[n+]([O-])cc1 (stereo partly shown) [EM-5854] | 5.5 and 5.5 ± 1.2 | 2.5 ± 0.4 | -86 ± 2 | -85 | -46 ± 2 | -76 | 85 | 76 | 0.4 ± 0.1 | −109 ± 5 | −67 ± 2 | 0.63 ± 0.08 | pure antiandrogen | – | – | – | – | – | – | – | potency on rat androgen-sensitive parameters relative to currently available antiandrogens (Immature Rat CX + DHT; rat, in vivo): approximately 5 times; AUC (in vivo; plasma): 2930 ± 233 ng·h/mL; % change vs 4-DIONE Cont (CX Cont = −100% inh) Seminal Vesicles ([2]; 0.2 mg/rat/per os/ID): −69 ± 7%; % change vs 4-DIONE Cont (CX Cont = −100% inh) Ventral Prostate ([2]; 0.2 mg/rat/per os/ID): −34 ± 7%; reversal of the stimulatory effect of 4-dione on ventral prostate weight ([2]; daily oral dose of 1 mg/rat): 67%; 4-dione-induced stimulation of seminal vesicle weight ([2]; orchidectomized mature rats with 4-dione implants): completely reversed
CC12CCC3c4ccc(C#N)c(Cl)c4CCC3C1CCCC2(O)Cc1cc[n+]([O-])cc1 (stereo not shown) [EM-5945] | 13 | 0.9 | – | – | – | – | – | – | 0.3 | – | – | 2.8 ± 0.4 | – | – | – | – | – | – | – | – | Prostate Conc, 7 h (Rat) ([3]; po): 1539 ng/g
CC12CCC3c4ccc(C#N)c(F)c4CCC3C1CCC2(O)Cc1ccc(-c2ccc[n+]([O-])c2)cc1 (stereo not shown) [EM-8419] | – | – | – | – | – | – | – | – | – | – | – | 83 ± 35 | became a SARM | +36 ± 11% | −33 ± 7% | −36 ± 0% | +238 ± 12% | +76 ± 2% | +89 ± 5% | – | % of stim of basal at 10^−7M (% over basal) [1]: +94 ± 17%; % of stim of basal at 10^−7 M (DHT = 100%) [1]: +62 ± 11%; % of inh of DHT at 10^−7 M (Basal = 100%) ([1]; 0.0003 µM): +21 ± 11%; In Vivo Agonist Rat CX % change vs CX (DHT CONT = +100%) Bulbo (Immature Rat CX): +115 ± 4%; In Vivo Agonist Rat CX % change vs CX (DHT CONT = +100%) SV (Immature Rat CX): +26 ± 2%; In Vivo Agonist Rat CX % change vs CX (DHT CONT = +100%) VP (Immature Rat CX): +39 ± 6%; AUC 24 h 0.5 mg/rat oral [3]: 5725 ± 595 ng·h/mL
CC(C)C(=O)Nc1ccc([N+](=O)[O-])c(C(F)(F)F)c1 [Flutamide, reference compound] | – | – | -62 ± 4 | -83 | -26 ± 2 | -48 | 83 | 48 | – | −102 ± 8 | −47 ± 7 | – | – | [−68 ± 2] % | [−83 ± 1] % | [−48 ± 1] % | +42 ± 6% | +33 ± 4% | +75 ± 4% | 39 ± 4 | In Vivo Agonist % Change vs CX (DHT = +100%) SV (Immature Rat CX; sc): (0; 0.2 mg, sc) %; In Vivo Agonist % Change vs CX (DHT = +100%) VP (Immature Rat CX; sc): (1; 0.2 mg, sc) %; inhibition of prostate weight (4-dione stimulated) ([2]; 5 mg/rat): 70%; % change vs 4-DIONE Cont (CX Cont = −100% inh) Seminal Vesicles ([2]; 5 mg/rat/per os/ID): −106 ± 6%; % change vs 4-DIONE Cont (CX Cont = −100% inh) Ventral Prostate ([2]; 5 mg/rat/per os/ID): −70 ± 3%
CC(C)(O)C(=O)Nc1ccc([N+](=O)[O-])c(C(F)(F)F)c1 [Hydroxyflutamide, reference compound] | 1 | 16.8 ± 0.5 | – | – | – | – | – | – | 0.1 | – | – | 0.21 ± 0.09 | – | – | – | – | – | – | – | 5380 ± 820 | –
